The results in this text go back to paper PMC6945522, “Promoting tau secretion and propagation by hyperactive p300/CBP via autophagy-lysosomal pathway in tauopathy” (Molecular Neurodegeneration, 2020).

The target of the assay is T1, p300 (Homo sapiens, UniProt Q09472).
T1 construct: gene EP300; fragment of p300 (aa 1815–1910), including the PHD, catalytic (HAT), ZZ and TAZ2 domains
T1 sequence (Q09472 1815-1910): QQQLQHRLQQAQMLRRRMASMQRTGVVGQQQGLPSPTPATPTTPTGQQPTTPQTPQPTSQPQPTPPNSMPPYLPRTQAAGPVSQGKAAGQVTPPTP
The assay can be described thus: HTRF tau acetylation assay with purified p300 core domain; confirmed by orthogonal MMBC assay and DSF binding. It is filed as biochemical.

For orientation: IC50 means the point on the concentration scale where inhibition reaches its midpoint. The low end stands for inhibition by little substance, the high end for a need for much substance. As for `Cc1cc2c(c(=S)[nH]1)C(=O)O/C2=C\c1ccco1` [compound 37892, SMDC37892], the IC50 came out at 35.3 µM.
